Reference: ChEMBL document CHEMBL5614409, “Discovery of potent HIV-1 NNRTIs by CuAAC click-chemistry-based miniaturized synthesis, rapid screening and structure optimization” (Eur J Med Chem, 2024)
Converted amounts (≈) assume the structure as drawn.

How the values were obtained:
[1] = molecular target: Human immunodeficiency virus type 1 reverse transcriptase (Human immunodeficiency virus 1, UniProt Q72547); assay: Inhibition of HIV-1 reverse transcriptase assessed as reduction in biotin-dUTP incorporation incubated for 2 hrs in presence of template and viral nucleotides by ELISA
[2] = tested on: Human immunodeficiency virus 1; assay: Antiviral activity against HIV1 IIIB infected in MT4 cells assessed as reduction in virus induced cytopathic effect incubated for 5 days by MTT method; assay type: functional, organism-based; conditions: Human immunodeficiency virus 1, IIIB, MT4, 120 h
[3] = Cytotoxicity against human MT4 cells assessed as reduction in cell viability incubated for 5 days by MTT method; assay type: toxicity, cell-based; conditions: time 5 day
[4] = Selectivity index, ratio of CC50 for human MT4 cells to EC50 for antiviral activity against HIV1 IIIB infected in MT4 cells; assay type: toxicity, cell-based; conditions: read-out: Ratio CC50/EC50
[5] = tested on: Human immunodeficiency virus 1; assay: Antiviral activity against HIV1 IIIB harboring L100I mutant infected in MT4 cells assessed as reduction in virus induced cytopathic effect incubated for 5 days by MTT method; assay type: functional, organism-based; conditions: Human immunodeficiency virus 1, IIIB, MT4, 120 h
[6] = tested on: Human immunodeficiency virus 1; assay: Antiviral activity against HIV1 IIIB harboring K103 N mutant infected in MT4 cells assessed as reduction in virus induced cytopathic effect incubated for 5 days by MTT method; assay type: functional, organism-based; conditions: Human immunodeficiency virus 1, IIIB, MT4, 120 h
[7] = tested on: Human immunodeficiency virus 1; assay: Antiviral activity against HIV1 IIIB harboring Y181C mutant infected in MT4 cells assessed as reduction in virus induced cytopathic effect incubated for 5 days by MTT method; assay type: functional, organism-based; conditions: Human immunodeficiency virus 1, IIIB, MT4, 120 h
[8] = tested on: Human immunodeficiency virus 1; assay: Antiviral activity against HIV1 IIIB harboring Y188L mutant infected in MT4 cells assessed as reduction in virus induced cytopathic effect incubated for 5 days by MTT method; assay type: functional, organism-based; conditions: Human immunodeficiency virus 1, IIIB, MT4, 120 h
[9] = tested on: Human immunodeficiency virus 1; assay: Antiviral activity against HIV1 IIIB harboring E138K mutant infected in MT4 cells assessed as reduction in virus induced cytopathic effect incubated for 5 days by MTT method; assay type: functional, organism-based; conditions: Human immunodeficiency virus 1, IIIB, MT4, 120 h
[10] = tested on: Human immunodeficiency virus 1; assay: Antiviral activity against HIV1 IIIB harboring F227L/V106A double mutant infected in MT4 cells assessed as reduction in virus induced cytopathic effect incubated for 5 days by MTT method; assay type: functional, organism-based; conditions: Human immunodeficiency virus 1, IIIB, MT4, 120 h
[11] = tested on: Human immunodeficiency virus 1; assay: Antiviral activity against HIV1 IIIB harboring RES056 mutant infected in MT4 cells assessed as reduction in virus induced cytopathic effect incubated for 5 days by MTT method; assay type: functional, organism-based; conditions: Human immunodeficiency virus 1, IIIB, MT4, 120 h
[12] = Aqueous solubility of compound at pH 7.4 incubated for 24 hrs under shaking condition by HPLC method; assay type: physicochemical; conditions: buffer
[13] = Aqueous solubility of compound at pH 7 incubated for 24 hrs under shaking condition by HPLC method; assay type: physicochemical; conditions: buffer
[14] = Aqueous solubility of compound at pH 2 incubated for 24 hrs under shaking condition by HPLC method; assay type: physicochemical; conditions: buffer
[15] = tested on: Human immunodeficiency virus 1; assay: Antiviral activity against HIV1 IIIB harboring F227L/V106A double mutant infected in MT4 cells assessed as fold increase in reduction of virus induced cytopathic effect incubated for 5 days by MTT method relative to A6N36; assay type: functional; conditions: time 5 day
[16] = tested on: Human immunodeficiency virus 1; assay: Antiviral activity against HIV1 IIIB harboring RES056 mutant infected in MT4 cells assessed as fold increase in reduction of virus induced cytopathic effect incubated for 5 days by MTT method relative to A6N36; assay type: functional; conditions: time 5 day
[17] = tested on: Human immunodeficiency virus 1; assay: Antiviral activity against HIV1 IIIB harboring Y188L mutant infected in MT4 cells assessed as fold increase in reduction of virus induced cytopathic effect incubated for 5 days by MTT method relative to A6N36; assay type: functional; conditions: time 5 day
[18] = molecular target: Human immunodeficiency virus type 1 reverse transcriptase (Human immunodeficiency virus 1) (UniProt Q72547); assay: Inhibition of HIV-1 reverse transcriptase incubated for 2 hrs in presence of template and viral nucleotides by ELISA relative to control; set-up: concentration or dose not given beside the values; conditions: concentration not given here
[19] = Aqueous solubility of compound at pH 7.4; conditions: buffer
[20] = Aqueous solubility of compound at pH 7; conditions: buffer

Row | solubility [19] | solubility [20] | Compound | IC50 [1] | EC50 [2] | CC50 at 120 h [3] | selectivity ratio [4] | EC50 [5] | EC50 [6] | EC50 [7] | EC50 [8] | EC50 [9] | EC50 [10] | EC50 [11] | solubility thermodynamic at 24 h [12] | solubility thermodynamic at 24 h [13] | solubility thermodynamic at 24 h [14] | fold change (FC) [15] | fold change (FC) [16] | fold change (FC) [17] | inhibition [18]
1 | – | – | CNC(=O)Cn1cc(CN2CCC(Nc3nc(Oc4c(C)cc(/C=C/C#N)cc4C)c4ccsc4n3)CC2)nn1 | 134 nM | 5 nM | 18700 nM | 3990 | 4 nM | 3 nM | 8 nM | 30 nM | 9 nM | 28 nM | 58 nM | 20.1 µg/mL (≈ 36 µM) | 23.6 µg/mL (≈ 42.3 µM) | 733 µg/mL (≈ 1310 µM) | 2 | 2 | 3 | –
2 | – | – | COC(=O)CCCn1cc(CN2CCC(Nc3nccc(Oc4c(C)cc(/C=C/C#N)cc4C)n3)CC2)nn1 | 73 nM | 6 nM | 16100 nM | 2680 | 28 nM | 8 nM | 28 nM | 1090 nM | 36 nM | 830 nM | 2360 nM | – | – | – | – | – | – | 90.7%
3 | – | – | Cc1cc(/C=C/C#N)cc(C)c1Oc1nc(NC2CCN(Cc3cn(CC(N)=O)nn3)CC2)nc2sccc12 | 118 nM | 4 nM | 62500 nM | 14500 | 6 nM | 5 nM | 17 nM | 39 nM | 14 nM | 51 nM | 89 nM | 20.1 µg/mL (≈ 37 µM) | 22.5 µg/mL (≈ 41.4 µM) | 228 µg/mL (≈ 419 µM) | – | – | 3 | –
4 | – | – | Cc1cc(C#N)cc(C)c1Oc1ccnc(NC2CCN(Cc3cn(CC(=O)NC4CC4)nn3)CC2)n1 | 62 nM | 3 nM | 31300 nM | 12500 | 150 nM | 19 nM | 30 nM | 399 nM | 28 nM | 3270 nM | 2630 nM | – | – | – | – | – | – | 93.4%
5 | – | – | Cc1cc(/C=C/C#N)cc(C)c1Oc1ccnc(NC2CCN(Cc3cn(CC(=O)NC4CC4)nn3)CC2)n1 | 40 nM | 2 nM | 21000 nM | 14000 | 9 nM | – | 7 nM | 91 nM | 7 nM | 66 nM | 85 nM | 85 µg/mL (≈ 161 µM) | 198 µg/mL (≈ 375 µM) | 3190 µg/mL (≈ 6040 µM) | – | – | – | 92.4%
6 | – | – | CCOC(=O)Cn1cc(CN2CCC(Nc3nccc(Oc4c(C)cc(/C=C/C#N)cc4C)n3)CC2)nn1 | 54 nM | 11 nM | 18800 nM | 1740 | – | – | – | – | – | – | – | – | – | – | – | – | – | 90.9%
7 | – | – | Cc1cc(/C=C/C#N)cc(C)c1Oc1nc(NC2CCN(Cc3cn(CC(=O)NC4CCOCC4)nn3)CC2)nc2sccc12 | 220 nM | 3 nM | 16000 nM | 4980 | 5 nM | 5 nM | 15 nM | 29 nM | 18 nM | 47 nM | 62 nM | 23.1 µg/mL (≈ 36.8 µM) | 22.5 µg/mL (≈ 35.8 µM) | 1610 µg/mL (≈ 2570 µM) | – | – | 3 | –
8 | – | – | COC(=O)Cn1cc(CN2CCC(Nc3nccc(Oc4c(C)cc(/C=C/C#N)cc4C)n3)CC2)nn1 | 52 nM | 36 nM | 26200 nM | 732 | – | – | – | – | – | – | – | – | – | – | – | – | – | 91.7%
9 | – | – | CCNC(=O)Cn1cc(CN2CCC(Nc3nc(Oc4c(C)cc(/C=C/C#N)cc4C)c4ccsc4n3)CC2)nn1 | 210 nM | 4 nM | 19000 nM | 5010 | 7 nM | – | 12 nM | 29 nM | 17 nM | 36 nM | 55 nM | 22.6 µg/mL (≈ 39.5 µM) | 25.1 µg/mL (≈ 43.9 µM) | 659 µg/mL (≈ 1150 µM) | – | – | 3 | –
10 | – | – | Cc1cc(/C=C/C#N)cc(C)c1Oc1nc(NC2CCN(Cc3cn(CC(=O)NC4CC4)nn3)CC2)nc2sccc12 | 214 nM | 5 nM | 16900 nM | 3520 | 6 nM | – | 16 nM | 38 nM | 22 nM | 156 nM | 84 nM | – | – | – | – | – | 3 | –
11 | – | – | Cc1cc(/C=C/C#N)cc(C)c1Oc1ccnc(NC2CCN(Cc3cn(Cc4ccc(B(O)O)cc4)nn3)CC2)n1 | 96 nM | 6 nM | 4620 nM | 825 | 9 nM | 4 nM | 11 nM | 78 nM | 19 nM | 99 nM | 133 nM | – | – | – | – | – | – | 92.2%
12 | – | – | Cc1cc(/C=C/C#N)cc(C)c1Oc1ccnc(NC2CCN(Cc3cn(CC(=O)N4CCOCC4)nn3)CC2)n1 | 59 nM | 2 nM | 30500 nM | 13300 | 61 nM | 3 nM | 17 nM | 1260 nM | 10 nM | 664 nM | 1170 nM | – | – | – | – | – | – | 89.4%
13 | < 1 µg/mL | < 1 µg/mL | Cc1cc(/C=C/C#N)cc(C)c1Nc1ccnc(Nc2ccc(C#N)cc2)n1 [RILPIVIRINE] | – | – | – | – | – | – | – | – | – | – | – | – | – | – | – | – | – | –
14 | – | – | Cc1cc(C#N)cc(C)c1Oc1ccnc(NC2CCN(Cc3cn(Cc4ccc(C(N)=O)cc4)nn3)CC2)n1 | 55 nM | 2 nM | 7690 nM | – | 50 nM | 7 nM | 11 nM | 97 nM | 14 nM | 1040 nM | > 7690 nM | – | – | – | – | – | – | 94.1%
15 | – | – | COC(=O)CCCn1cc(CN2CCC(Nc3nccc(Oc4c(C)cc(C#N)cc4C)n3)CC2)nn1 | 56 nM | 10 nM | 21300 nM | 2060 | – | – | – | – | – | – | – | – | – | – | – | – | – | 90.7%
